Source: patent publication US11279733B2, “Peptide antibiotics” (priority 2017, dated 2022)
Converted amounts (≈) assume the structure as drawn. Where two headings read alike, the source gives them in different places. Positions of bridges follow the written chain, without caps; N, C: chain ends. Non-standard residues stand in square brackets, D forms with d. Residues, ends and D or L forms follow the SMILES beside them. *: point of attachment. Decanoyl(3R-OH) = CCCCCCC[C@@H](O)CC(=O)*; dDab = NCC[C@@H](N)C(=O)O; Dab = NCC[C@H](N)C(=O)O

What was measured:
[1] = system: K. pneumoniae ATCC 700603, MDR; conditions: ATCC 700603
Method in brief: (§1)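 Mid-log cultures grown in Mueller Hinton broth at 37° C were tested by 2-fold broth microdilution at 5×10^5 CFU/mL final. Compounds were dissolved in water and tested over a final range of 32 to 0.015 μg/mL.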

A. baumannii GN_093 PmxR = conditions: GN 093 PmxR
Method in brief: as §1

[2] = system: K. pneumoniae ATCC BAA-2146, NDM-1 pos; conditions: ATCC BAA-2146
Method in brief: as §1

P. aeruginosa ATCC 27853 = conditions: ATCC 27853
Method in brief: as §1

[3] = system: K. pneumoniae GN_106, PmxR; conditions: GN 106, PmxR
Method in brief: as §1

[4] = system: P. aeruginosa GN_043, PmxR
Method in brief: as §1

E. coli ATCC 25922 = conditions: ATCC 25922
Method in brief: as §1

K. pneumoniae ATCC 13883 = conditions: ATCC 13883
Method in brief: as §1

[5] = system: S. aureus ATCC 25923, MSSA; conditions: ATCC 25923
Method in brief: as §1

[6] = system: P. aeruginosa GN_105, PmxR; conditions: GN 105, PmxR
Method in brief: as §1

[7] = system: K. pneumoniae GN_102 PmxR; conditions: GN 102 PmxR
Method in brief: as §1

A. baumannii ATCC 19606 = conditions: ATCC 19606
Method in brief: as §1

in vitro = conditions: human
Method in brief: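 HK2 cells were seeded at 2000 per well in DMEM/F12 with 10% FBS and left to attach for 24 h at 37 °C, 5% CO2. They were then exposed for 24 h to 3-fold peptide dilutions starting from 600 μM solutions in quadruplicate. LDH release was read at 450 nm, and CC50 was fitted from dose-response curves.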

Row | Structure (SMILES) | MIC K. pneumoniae ATCC 700603, MDR [1] [µg/mL] | MIC A. baumannii GN_093 PmxR (A. baumannii GN_093 PmxR) [µg/mL] | MIC K. pneumoniae ATCC BAA-2146, NDM-1 pos [2] [µg/mL] | MIC P. aeruginosa ATCC 27853 (P. aeruginosa ATCC 27853) [µg/mL] | MIC K. pneumoniae GN_106, PmxR [3] [µg/mL] | MIC P. aeruginosa GN_043, PmxR ([4]; polymyxin-resistant) [µg/mL] | MIC E. coli ATCC 25922 (E. coli ATCC 25922) [µg/mL] | MIC K. pneumoniae ATCC 13883 (K. pneumoniae ATCC 13883) [µg/mL] | MIC S. aureus ATCC 25923, MSSA [5] [µg/mL] | MIC P. aeruginosa GN_105, PmxR [6] [µg/mL] | MIC K. pneumoniae GN_102 PmxR [7] [µg/mL] | MIC A. baumannii ATCC 19606 (A. baumannii ATCC 19606) [µg/mL] | CC50 at 24 h (in vitro) [µM] | MIC P. aeruginosa GN_043, PmxR ([4]; P. aeruginosa GN_043, PmxR) [µg/mL]
1 | CCCCCCC[C@@H](O)CC(=O)N[C@H](CCN)C(=O)N[C@H]1CCNC(=O)[C@H](CO)NC(=O)[C@H](CCN)NC(=O)[C@H](CCN)NC(=O)[C@H](CC(C)C)NC(=O)[C@@H](Cc2ccccc2)NC(=O)[C@H](CCN)NC1=O [compound 6510, 3(R)OH-nC9CO-D-Dab-cyc[L-Dab-L-Dab-D-Phe-L-Leu-L-Dab-L-Dab-L-Ser]] ({Decanoyl(3R-OH)}-[dDab][Dab][Dab][dF]L[Dab][Dab]S; lactam 2-C) | 4 (≈ 3.93 µM) | >32 | 4 (≈ 3.93 µM) | 1 (≈ 0.982 µM) | >32 | 1 (≈ 0.982 µM) | 1 (≈ 0.982 µM) | 64 (≈ 62.9 µM) | >64 | 16 (≈ 15.7 µM) | >32 | >64 | 149 | –
2 | CCCCCCC[C@@H](O)CC(=O)N[C@H](CCN)C(=O)N[C@H]1CCNC(=O)[C@H]([C@@H](C)O)NC(=O)[C@H](CCN)NC(=O)[C@H](CCN)NC(=O)[C@H](CC(C)C)NC(=O)[C@@H](Cc2ccccc2)NC(=O)[C@H](CCNC(=O)[C@@H](N)CCCNC(=N)N)NC1=O [compound 6657, 3(R)OH-nC9CO-D-Dab-cyc[L-Dab-L-Dab(L-Arg)-D-Phe-L-Leu-L-Dab-L-Dab-L-Thr]] ({Decanoyl(3R-OH)}-[dDab][Dab][Dab](Arg)[dF]L[Dab][Dab]T; lactam 2-C) | >32 | >32 | >32 | 16 (≈ 13.5 µM) | >32 | – | >32 | >32 | >32 | >32 | >32 | >32 | > 300 | >32
3 | CCCCCCC[C@@H](O)CC(=O)N[C@H](CCN)C(=O)N[C@H]1CCNC(=O)[C@H](Cc2ccc(O)cc2)NC(=O)[C@H](CCN)NC(=O)[C@H](CCN)NC(=O)[C@H](CC(C)C)NC(=O)[C@@H](Cc2ccccc2)NC(=O)[C@H](CCN)NC1=O [compound 6511, 3(R)OH-nC9CO-D-Dab-cyc[L-Dab-L-Dab-D-Phe-L-Leu-L-Dab-L-Dab-L-Tyr]] ({Decanoyl(3R-OH)}-[dDab][Dab][Dab][dF]L[Dab][Dab]Y; lactam 2-C) | 4 (≈ 3.66 µM) | 32 (≈ 29.2 µM) | 2 (≈ 1.83 µM) | 2 (≈ 1.83 µM) | 8 (≈ 7.31 µM) | 1 (≈ 0.914 µM) | 8 (≈ 7.31 µM) | 8 (≈ 7.31 µM) | 32 (≈ 29.2 µM) | 4 (≈ 3.66 µM) | 8 (≈ 7.31 µM) | 32 (≈ 29.2 µM) | 76 | –
4 | CCCCCCC[C@@H](O)CC(=O)N[C@H](CCN)C(=O)N[C@H]1CCNC(=O)[C@H](CC(C)C)NC(=O)[C@H](CCN)NC(=O)[C@H](CCN)NC(=O)[C@H](CC(C)C)NC(=O)[C@@H](C)NC(=O)[C@H](CCN)NC1=O [compound 5006, 3(R)OH-nC9CO-D-Dab-cyc[L-Dab-L-Dab-D-Ala-L-Leu-L-Dab-L-Dab-L-Leu]] ({Decanoyl(3R-OH)}-[dDab][Dab][Dab][dA]L[Dab][Dab]L; lactam 2-C) | >32 | >32 | 32 (≈ 33 µM) | 16 (≈ 16.5 µM) | 32 (≈ 33 µM) | – | 16 (≈ 16.5 µM) | 32 (≈ 33 µM) | >32 | 32 (≈ 33 µM) | 8 (≈ 8.26 µM) | >32 | 277 | 8 (≈ 8.26 µM)
